Key:
[1] = system: Breast cancer cells, MDA MB 468; assay: breast cancer xenograft model, MK0557 and 5-FU (Example 15); type: in vivo, CB17-SCID; conditions: 5-FU alone, 30 mg/kg ip q.d.×5 days
Experimental: Breast cancer cells, MDA MB 468, were injected into CB17-SCID. The treatments were started day 14 after tumor implantation. […] Tumor volume and tumor growth were monitored during the experiment.

[2] = system: Breast cancer cells, MDA MB 468; assay: breast cancer xenograft model (Example 11); type: in vivo, SCID mice; conditions: 10 mg/kg i.p. 3/week, approximately 4 weeks
Experimental: Breast cancer cells, MDA MB 468 (12 million), were injected subcutaneously (s.c.) on the neck of SCID mice (CB17, female, 4-6 weeks old) (Charles River, Wilmington, Mass.). The mice were divided into four groups, 5 mice for each group. The treatments were started when the tumor volume reached about 100 mm^3, day 22 after tumor implantation. […] The tumor sizes were monitored every 3 or 4 days. […] (FIG. 12)

[3] = system: Hodgkin Lymphoma cells, HD-MYZ; assay: Hodgkin's lymphoma xenograft model, MK-0557 and 200464 (Example 16); type: in vivo; conditions: for inhibition rate (tumor volume) / inhibition rate (tumor weight): versus vehicle
Excerpt: Hodgkin lymphoma cells, HD-MYZ, were implanted in NOD-SCID mice, female, 4-6 weeks from Jackson's Laboratory (Maine). The treatments were started day 6 after tumor implantation. The mice were divided to six groups, 4-5 mice from each group. The treatment started with a tumor volume of about 70 mm3 after tumor implantation.

[4] = system: Hodgkin Lymphoma cells, HD-MYZ; assay: Hodgkin lymphoma xenograft model, MK0557 vs AVASTIN (Example 14); type: in vivo, NOD-SCID mice; conditions: 5 mg/kg i.p. 1/week×3 weeks
Excerpt: Hodgkin lymphoma cells, HD-MYZ, were implanted in NOD-SCID mice. […] Tumor volume and tumor growth were monitored during the experiment.

[5] = system: Hodgkin Lymphoma cells, HD-MYZ; assay: Hodgkin lymphoma xenograft model (Example 12); type: in vivo, NOD-SCID mice; conditions: 5 mg/kg i.p. 1/week, approximately 2 weeks
Excerpt: Hodgkin lymphoma cells, HD-MYZ (1 million), were implanted s.c. on the right flank of NOD-SCID mice (Cat#001303, female, 4-6 weeks from Jackson laboratories, Bar Harbor, Me.). The mice were divided into four groups, 5 mice for each group. […] The tumor growth was monitored during the experiment. […] (FIG. 13)

[6] = group 2: 200464 20 mg/kg i.p. 3 times for each week
[7] = group 3: 200464 40 mg/kg i.p. 3 times for each week

O=c1[nH]cc(F)c(=O)[nH]1 [5-FU, 5-fluorouracil]
Mean Tumor Volume [1]: 434.44±56.63 mm^3 | Mean Tumor Weight [1]: 0.1892 ± 0.026 g | inhibition rate (tumor volume) ([1]; versus vehicle): 32.35% | inhibition rate (tumor weight) ([1]; versus vehicle): 26.55% | tumor growth [2]: inhibited tumor growth

CC[C@@H]1C(=O)N(C)c2cnc(Nc3ccc(C(=O)NC4CCN(C)CC4)cc3OC)nc2N1C1CCCC1 [compound 200464]
Mean Tumor Volume [3, 6]: 754.55+/−158.32 mm^3 | Mean Tumor Weight [3, 6]: 0.8788 ± 0.2674 g | inhibition rate (tumor volume) [3, 6]: 62.26% | inhibition rate (tumor weight) [3, 6]: 5.42% | Mean Tumor Volume [3, 7]: 565.75+/−176.13 mm^3 | Mean Tumor Weight [3, 7]: 0.5472 ± 0.2097 g | inhibition rate (tumor volume) [3, 7]: 49.66% | inhibition rate (tumor weight) [3, 7]: 41.11% | tolerability of the doses by the mice ([3]; mouse, in vivo): well tolerated

bevacizumab [AVASTIN®]
Mean Tumor Volume [4]: 672.53±85.56 mm^3 | Mean Tumor Weight [4]: 0.33 ± 0.03 g | inhibition rate (tumor volume) ([4]; versus vehicle): 74.14% | inhibition rate (tumor weight) ([4]; versus vehicle): 86.96% | tumor growth [5]: inhibited tumor growth

Source: patent US8765791B2, “Method of treating cancer using a neuropeptide Y 5R (NP Y5R) antagonist” (University Health Network, priority 2008, dated 2014)
